Legend:
[1] = Time-course of generation of ClO2 after 1:1 mixing of NaClO2 solution and oxidizing agent solution, change in absorption at 360 nm; settings: from NaClO2 in the presence of the oxidizing agent
Excerpt: The pH of the resulting composition should be at or below about 7, but above the pKa of chlorous acid. It is known that ClO2 is generated from NaClO2 at pH values at or below about 7 in the absence of an oxidizing agent such as […]. However, the generation is quite slow (on the order of days and months). In the presence of an oxidizing agent such as […] or tannic acid, under the conditions described above, therapeutically effective levels of ClO2 begin to be generated in seconds, as shown below in Tables 1 and 2. Increasing the concentration of the oxidizing agent by weight will cause a more rapid generation of ClO2.

[2] = same solution as H2O2; cited from earlier work
[3] = standard temperature and pressure; cited from earlier work

| Compound | time in which therapeutically effective levels of ClO2 begin to be generated [1] | stability in the presence of H2O2 [2] | solubility in water [3] |
| --- | --- | --- | --- |
| O=C1O[C@H]([C@@H](O)CO)C(O)=C1O [ascorbic acid] | in seconds |  |  |
| O=S(=O)([O-])OOS(=O)(=O)[O-].[Na+].[Na+] [sodium persulfate] |  | degrades very quickly |  |
| O=C(OC[C@H]1O[C@@H](OC(=O)c2cc(O)c(O)c(OC(=O)c3cc(O)c(O)c(O)c3)c2)[C@H](OC(=O)c2cc(O)c(O)c(OC(=O)c3cc(O)c(O)c(O)c3)c2)[C@@H](OC(=O)c2cc(O)c(O)c(OC(=O)c3cc(O)c(O)c(O)c3)c2)[C@@H]1OC(=O)c1cc(O)c(O)c(OC(=O)c2cc(O)c(O)c(O)c2)c1)c1cc(O)c(O)c(OC(=O)c2cc(O)c(O)c(O)c2)c1 [tannic acid] | in seconds |  | 1 g/0.35 mL water |

— patent US20060045855A1, “Oral composition for reducing plaque and microbial infections and whitening teeth” (priority 2004, published 2006)
